Tests used:
Assay in all cases: Test C greenhouse herbicide test, pre- and postemergence
Type in all cases: in vivo
[1] = test system: barnyardgrass (Echinochloa crus-galli)
In short: (§1)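 Seeds sown in loam–sand blend treated preemergence; plants in peat-based medium sprayed postemergence at 2–18 cm (1- to 4-leaf stage); chemicals in non-phytotoxic solvent with surfactant. Greenhouse 13–15 d, then visual rating versus controls on 0–100 scale (0 no effect, 100 complete control).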

[2] = test system: blackgrass (Alopecurus myosuroides)
In short: as §1

corn (Zea mays) = test system: corn (Zea mays)
In short: as §1

[3] = test system: crabgrass, large (large crabgrass, Digitaria sanguinalis)
In short: as §1

[4] = test system: foxtail, giant (giant foxtail, Setaria faberii)
In short: as §1

[5] = test system: galium (catchweed bedstraw, Galium aparine)
In short: as §1

[6] = test system: johnsongrass (Sorghum halepense)
In short: as §1

[7] = test system: lambsquarters (Chenopodium album)
In short: as §1

[8] = test system: morningglory (Ipomoea coccinea)
In short: as §1

[9] = test system: nutsedge, yellow (yellow nutsedge, Cyperus esculentus)
In short: as §1

[10] = test system: oilseed rape (Brassica napus)
In short: as §1

[11] = test system: pigweed (Amaranthus retroflexus)
In short: as §1

[12] = test system: ragweed (common ragweed, Ambrosia elatior)
In short: as §1

[13] = test system: ryegrass, Italian (Italian ryegrass, Lolium multiflorum)
In short: as §1

[14] = test system: velvetleaf (Abutilon theophrasti)
In short: as §1

[15] = test system: waterhemp (common waterhemp, Amaranthus rudis)
In short: as §1

[16] = Postemergence, 31 g ai/ha, scale 0 to 100 (0 no effect, 100 complete control)
[17] = Postemergence, 62 g ai/ha, 0 to 100 scale (0 no effect, 100 complete control)
[18] = Postemergence, 250 g ai/ha, scale 0 to 100, 0 no effect, 100 complete control, 13 to 15 d
[19] = Preemergence, 31 g ai/ha, scale 0 to 100, 0 is no effect, 100 is complete control
[20] = Preemergence, 62 g ai/ha, scale 0 to 100, 0 is no effect, 100 is complete control
[21] = Preemergence, 125 g ai/ha, scale 0 to 100, 0 is no effect, 100 is complete control
[22] = Preemergence, 250 g ai/ha, scale 0 to 100 (0 no effect, 100 complete control)
[23] = postemergence, 125 g ai/ha, scale 0 to 100, 0 no effect, 100 complete control

Structure (SMILES): COc1nn(C)c(=O)c(-c2c(C)ccc3ccccc23)c1OC(C)=O [Compound 138]
- Plant response rating, Barnyardgrass [1, 16]: 25
- Barnyardgrass plant response rating [1, 17]: 25
- Plant response rating, Barnyardgrass ([1]; Postemergence, 125 g ai/ha, scale 0 to 100, 0 is no effect, 100 is complete control): 30
- Plant response rating, Barnyardgrass [1, 18]: 40
- Plant response rating, Barnyardgrass [1, 19]: 30
- Plant response rating, Barnyardgrass [1, 20]: 55
- Plant response rating, Barnyardgrass [1, 21]: 90
- Barnyardgrass plant response rating [1, 22]: 98
- Plant response rating, Blackgrass [2, 16]: 5
- Blackgrass plant response rating [2, 17]: 5
- Plant response rating, Blackgrass [2, 18]: 80
- Plant response rating, Blackgrass [2, 19]: 45
- Plant response rating, Blackgrass [2, 20]: 55
- Plant response rating, Blackgrass [2, 21]: 40
- Blackgrass plant response rating [2, 22]: 90
- Blackgrass plant response rating [2, 23]: 50
- Plant response rating, Corn (corn (Zea mays); [16]): 0
- Corn plant response rating (corn (Zea mays); [17]): 0
- Plant response rating, Corn (corn (Zea mays); [18]): 15
- Plant response rating, Corn (corn (Zea mays); [19]): 5
- Plant response rating, Corn (corn (Zea mays); [20]): 5
- Plant response rating, Corn (corn (Zea mays); [21]): 5
- Corn plant response rating (corn (Zea mays); [22]): 15
- Corn plant response rating (corn (Zea mays); [23]): 15
- Plant response rating, Crabgrass, Large [3, 16]: 15
- Crabgrass, Large plant response rating [3, 17]: 20
- Plant response rating, Crabgrass, Large [3, 18]: 25
- Plant response rating, Crabgrass, Large [3, 19]: 0
- Plant response rating, Crabgrass, Large [3, 20]: 40
- Plant response rating, Crabgrass, Large [3, 21]: 70
- Crabgrass, Large plant response rating [3, 22]: 80
- Crabgrass, Large plant response rating [3, 23]: 20
- Plant response rating, Foxtail, Giant [4, 16]: 35
- Foxtail, Giant plant response rating [4, 17]: 60
- Plant response rating, Foxtail, Giant [4, 18]: 80
- Plant response rating, Foxtail, Giant [4, 19]: 80
- Plant response rating, Foxtail, Giant [4, 20]: 85
- Plant response rating, Foxtail, Giant [4, 21]: 100
- Foxtail, Giant plant response rating [4, 22]: 100
- Foxtail, Giant plant response rating [4, 23]: 65
- Plant response rating, Galium [5, 16]: 90
- Galium plant response rating [5, 17]: 90
- Plant response rating, Galium [5, 18]: 95
- Plant response rating, Galium [5, 19]: 95
- Plant response rating, Galium [5, 20]: 98
- Plant response rating, Galium [5, 21]: 98
- Galium plant response rating [5, 22]: 98
- Galium plant response rating [5, 23]: 95
- Plant response rating, Johnsongrass [6, 16]: 10
- Johnsongrass plant response rating [6, 17]: 10
- Plant response rating, Johnsongrass [6, 18]: 20
- Plant response rating, Johnsongrass [6, 19]: 10
- Plant response rating, Johnsongrass [6, 20]: 15
- Plant response rating, Johnsongrass [6, 21]: 30
- Johnsongrass plant response rating [6, 22]: 20
- Johnsongrass plant response rating [6, 23]: 20
- Plant response rating, Lambsquarters [7, 16]: 90
- Lambsquarters plant response rating [7, 17]: 90
- Plant response rating, Lambsquarters [7, 18]: 98
- Plant response rating, Lambsquarters [7, 19]: 95
- Plant response rating, Lambsquarters [7, 20]: 95
- Plant response rating, Lambsquarters [7, 21]: 100
- Lambsquarters plant response rating [7, 22]: 100
- Lambsquarters plant response rating [7, 23]: 95
- Plant response rating, Morningglory [8, 16]: 98
- Morningglory plant response rating [8, 17]: 100
- Plant response rating, Morningglory [8, 18]: 100
- Plant response rating, Morningglory [8, 19]: 80
- Plant response rating, Morningglory [8, 20]: 90
- Plant response rating, Morningglory [8, 21]: 98
- Morningglory plant response rating [8, 22]: 98
- Morningglory plant response rating [8, 23]: 98
- Plant response rating, Nutsedge, Yellow [9, 16]: 45
- Nutsedge, Yellow plant response rating [9, 17]: 65
- Plant response rating, Nutsedge, Yellow [9, 18]: 80
- Plant response rating, Nutsedge, Yellow [9, 19]: 5
- Plant response rating, Nutsedge, Yellow [9, 20]: 60
- Plant response rating, Nutsedge, Yellow [9, 21]: 95
- Nutsedge, Yellow plant response rating [9, 22]: 90
- Nutsedge, Yellow plant response rating [9, 23]: 75
- Plant response rating, Oilseed Rape [10, 16]: 95
- Oilseed Rape plant response rating [10, 17]: 98
- Plant response rating, Oilseed Rape [10, 18]: 98
- Plant response rating, Oilseed Rape [10, 19]: 85
- Plant response rating, Oilseed Rape [10, 20]: 90
- Plant response rating, Oilseed Rape [10, 21]: 90
- Oilseed Rape plant response rating [10, 22]: 100
- Oilseed Rape plant response rating [10, 23]: 98
- Plant response rating, Pigweed [11, 16]: 80
- Pigweed plant response rating [11, 17]: 85
- Plant response rating, Pigweed [11, 18]: 98
- Plant response rating, Pigweed [11, 19]: 100
- Plant response rating, Pigweed [11, 20]: 98
- Plant response rating, Pigweed [11, 21]: 100
- Pigweed plant response rating [11, 22]: 100
- Pigweed plant response rating [11, 23]: 90
- Plant response rating, Ragweed [12, 16]: 0
- Ragweed plant response rating [12, 17]: 0
- Plant response rating, Ragweed [12, 18]: 5
- Plant response rating, Ragweed [12, 19]: 95
- Plant response rating, Ragweed [12, 20]: 100
- Plant response rating, Ragweed [12, 21]: 98
- Ragweed plant response rating [12, 22]: 95
- Ragweed plant response rating [12, 23]: 5
- Plant response rating, Ryegrass, Italian [13, 16]: 5
- Ryegrass, Italian plant response rating [13, 17]: 5
- Plant response rating, Ryegrass, Italian [13, 18]: 70
- Plant response rating, Ryegrass, Italian [13, 19]: 55
- Plant response rating, Ryegrass, Italian [13, 20]: 90
- Plant response rating, Ryegrass, Italian [13, 21]: 90
- Ryegrass, Italian plant response rating [13, 22]: 95
- Ryegrass, Italian plant response rating [13, 23]: 10
- Plant response rating, Velvetleaf [14, 16]: 85
- Velvetleaf plant response rating [14, 17]: 90
- Plant response rating, Velvetleaf [14, 18]: 98
- Plant response rating, Velvetleaf [14, 19]: 85
- Plant response rating, Velvetleaf [14, 20]: 90
- Plant response rating, Velvetleaf [14, 21]: 98
- Velvetleaf plant response rating [14, 22]: 100
- Velvetleaf plant response rating [14, 23]: 95
- Plant response rating, Waterhemp [15, 16]: 90
- Waterhemp plant response rating [15, 17]: 95
- Plant response rating, Waterhemp [15, 18]: 100
- Plant response rating, Waterhemp [15, 19]: 95
- Plant response rating, Waterhemp [15, 20]: 100
- Plant response rating, Waterhemp [15, 21]: 98
- Waterhemp plant response rating [15, 22]: 100
- Waterhemp plant response rating [15, 23]: 98

— patent publication US10597388B2, “Pyridazinone herbicides” (FMC CORPORATION, priority 2014, dated 2020)
